Data taken from ChEMBL document CHEMBL4043121, “5-Bromoindirubin 3'-(O-oxiran-2-ylmethyl)oxime: A long-acting anticancer agent and a suicide inhibitor for epoxide hydrolase” (Bioorg Med Chem, 2017).
The source made the active and inactive calls. The calls are words filed in the database; no cut-off is given here.

Key:
HepG2 [1] = test: Cytotoxicity against human HepG2 cells assessed as cell growth inhibition after 24 hrs by alamar blue assay; type: functional, cell-based; conditions: HepG2, 24 h
[2] = Drug metabolism in human HepG2 cell lysate assessed as epoxide hydrolase-mediated oxirane hydrolysis at 9 uM measured up to 30 mins by HPLC analysis; type: ADME; conditions: 0.5 h
HepG2 [3] = test: Cytotoxicity against human HepG2 cells assessed as cell viability at 1 uM after 72 hrs by alamar blue assay relative to control; type: functional; conditions: HepG2, 72 h, read-out: Activity
epoxide hydrolase = test: Substrate activity at epoxide hydrolase in human HepG2 cell lysate after 5 mins by Lineweaver-Burk plot analysis; type: ADME
HepG2 [4] = test: Cytotoxicity against human HepG2 cells assessed as cell viability at 3 uM after 24 hrs by alamar blue assay relative to control; type: functional; conditions: HepG2, 24 h, read-out: Activity
[5] = Drug metabolism in human HepG2 cell lysate assessed as epoxide hydrolase-mediated 1H,1'H-[2,3']Biindolylidene-3,2'-dione 3-[O-(2,3-dihydroxy-propyl)-oxime] level after 5 mins by HPLC analysis; type: ADME
HepG2 [6] = test: Cytotoxicity against human HepG2 cells assessed as cell viability at 3 uM after 72 hrs by alamar blue assay relative to control; type: functional; conditions: HepG2, 72 h, read-out: Activity
HepG2 [7] = test: Cytotoxicity against human HepG2 cells assessed as cell viability at 1 uM after 24 hrs by alamar blue assay relative to control; type: functional; conditions: HepG2, 24 h, read-out: Activity
[8] = Drug metabolism in human HepG2 cell lysate assessed as epoxide hydrolase-mediated 5-bromoindirubin 3'-(O-2,3-dihydroxypropyl)oxime level after 5 mins by HPLC analysis; type: ADME
[9] = Drug recovery in human HepG2 cell lysate measured up to 30 mins by HPLC analysis; type: ADME, cell-based; conditions: read-out: Drug recovery
HepG2 [10] = test: Retention time of the compound in human HepG2 cell lysate by HPLC analysis; type: ADME, cell-based
Homo sapiens [11] = species on record: Homo sapiens; test: Inhibition of epoxide hydrolase in human HepG2 cell lysate up to 25 uM measured after 5 to 10 mins by Kitz-Wilson method
[12] = Substrate activity at epoxide hydrolase in human HepG2 cell lysate assessed as 5-bromoindirubin 3'-(O-2,3-dihydroxypropyl)oxime formation at >10 uM after 5 mins by HPLC analysis; type: ADME
[13] = Drug metabolism in human HepG2 cell lysate assessed as epoxide hydrolase-mediated oxirane hydrolysis at 20 uM measured up to 30 mins by HPLC analysis; type: ADME; conditions: 0.5 h
Homo sapiens [14] = species on record: Homo sapiens; test: Effect on epoxide hydrolase activity in human HepG2 cell lysate measured up to 25 uM
[15] = Drug metabolism in human HepG2 cell lysate assessed as epoxide hydrolase-mediated 5-bromoindirubin 3'-(O-2,3-dihydroxypropyl)oxime level after 20 mins by HPLC analysis; type: ADME
[16] = Drug recovery in human HepG2 cell lysate at 5 mins by HPLC analysis; type: ADME, cell-based; conditions: read-out: Drug recovery
[17] = Drug recovery in human HepG2 cell lysate by HPLC analysis; type: ADME, cell-based; conditions: TDE = time-dependent effect
[18] = Drug metabolism in human HepG2 cell lysate assessed as epoxide hydrolase-mediated 5-bromoindirubin 3'-(O-2,3-dihydroxypropyl)oxime level by HPLC analysis; type: ADME; conditions: TDE = time-dependent effect
[19] = Drug metabolism in human HepG2 cell lysate assessed as epoxide hydrolase-mediated 5-bromoindirubin 3'-(O-2,3-dihydroxypropyl)oxime formation after 30 mins by HPLC analysis; type: ADME; conditions: 0.5 h
Homo sapiens [20] = species on record: Homo sapiens; test: Inhibition of epoxide hydrolase in human HepG2 cell lysate up to 25 uM by Kitz-Wilson method; conditions: TDE = time-dependent effect
[21] = Drug recovery in human HepG2 cell lysate measured immediately after compound addition by HPLC analysis; type: ADME, cell-based; conditions: read-out: Drug recovery
[22] = Drug recovery in human HepG2 cell lysate after 10 to 30 mins by HPLC analysis; type: ADME, cell-based
[23] = Substrate activity at epoxide hydrolase in human HepG2 cell lysate assessed as 5-bromoindirubin 3'-(O-2,3-dihydroxypropyl)oxime formation at 2.5 to 6.25 uM after 5 mins by HPLC analysis; type: ADME
[24] = Drug metabolism in human HepG2 cell lysate assessed as epoxide hydrolase-mediated 5-bromoindirubin 3'-(O-2,3-dihydroxypropyl)oxime formation after 30 mins by UPLC/MS analysis; type: ADME; conditions: 0.5 h
HepG2 [25] = test: Cytotoxicity against human HepG2 cells assessed as cell viability at 3 uM up to 72 hrs by alamar blue assay; type: functional, cell-based

SMILES	IC50 (HepG2 [1])	other results
O=C1Nc2c(Br)cccc2/C1=C1/Nc2cc(Br)ccc2/C1=N\O	17 µM	
O=C1Nc2cc(Br)ccc2/C1=C1/Nc2cc(Br)ccc2/C1=N\OCC1CO1 (stereo unspecified)	> 100 µM	
O=C1Nc2ccc(Br)cc2/C1=C1/Nc2ccccc2/C1=N\O [INDIRUBIN 2]	6.9 µM	
O=C1Nc2ccc(I)cc2/C1=C1/Nc2ccccc2C1=O	> 100 µM	
O=C1Nc2ccc(F)cc2/C1=C1/Nc2ccccc2/C1=N\O	10 µM	
O=C1Nc2ccccc2/C1=C1/Nc2ccccc2/C1=N\OCC1CO1 (stereo unspecified)		Drug metabolism [2]: 1.8 nmol; viability at 1 µM (HepG2 [3]): 85%; Km at 5 min (epoxide hydrolase): 1.51 µM; viability at 3 µM (HepG2 [4]): 33%; Drug metabolism [5]: 7.34 nmol; viability at 3 µM (HepG2 [6]): 1.8%; viability at 1 µM (HepG2 [7]): 66%; Drug metabolism [8]: 2.24 nmol; remaining at 0.5 h [9]: 96 to 103%
O=C1Nc2ccc(Br)cc2/C1=C1/Nc2ccc(Br)cc2C1=O	> 100 µM	
O=C1Nc2cc(Br)ccc2/C1=C1/Nc2ccc(Br)cc2/C1=N\OCC1CO1 (stereo unspecified)	> 100 µM	
O=C1Nc2ccc(Br)cc2/C1=C1/Nc2ccccc2C1=O	> 100 µM	
COc1ccc2c(c1)/C(=C1/Nc3ccccc3/C1=N\OCC1CO1)C(=O)N2 (stereo unspecified)	1.6 µM	
O=C1Nc2ccccc2/C1=C1/Nc2ccccc2/C1=N\OCCC1CO1 (stereo unspecified)	7.8 µM	
COc1ccc2c(c1)NC(=O)/C2=C1\Nc2ccccc2\C1=N/OCC1CO1 (stereo unspecified)	61 µM	
O=C1Nc2ccc(Br)cc2/C1=C1/Nc2ccccc2/C1=N\OCC(O)CO (stereo unspecified)	9.8 µM	Retention_time (HepG2 [10]): 3.5 min; inhibition (Homo sapiens [11]): inactive; Activity [12]: Not Active
O=C1Nc2cc(Br)ccc2/C1=C1/Nc2cc(Br)ccc2/C1=N\O	16 µM	
O=C1Nc2ccc(Cl)cc2/C1=C1/Nc2ccccc2/C1=N\O	13 µM	
O=C1Nc2ccc(Br)cc2/C1=C1/Nc2cc(Br)ccc2/C1=N\OCC1CO1 (stereo unspecified)	> 100 µM	
O=C1Nc2c(Br)cccc2/C1=C1/Nc2cc(Br)ccc2C1=O	> 100 µM	
O=C1Nc2ccc(Cl)cc2/C1=C1/Nc2ccccc2/C1=N\OCC1CO1 (stereo unspecified)	1.3 µM	
O=C1Nc2ccc(F)cc2/C1=C1/Nc2ccccc2C1=O	> 100 µM	
COc1ccc2c(c1)NC(=O)/C2=C1\Nc2ccccc2\C1=N/O	21 µM	

SMILES	IC50 (HepG2 [1])	other results
COc1cccc2c1NC(=O)/C2=C1\Nc2ccccc2\C1=N/O	5.9 µM	
O=C1Nc2ccc(I)cc2/C1=C1/Nc2ccccc2/C1=N\OCC1CO1 (stereo unspecified)	3 µM	
COc1cccc2c1NC(=O)/C2=C1\Nc2ccccc2C1=O	> 100 µM	
O=C1Nc2cc(Br)ccc2/C1=C1/Nc2cc(Br)ccc2C1=O	> 100 µM	
O=C1Nc2ccc(Br)cc2/C1=C1/Nc2ccc(Br)cc2/C1=N\O	7 µM	
O=C1Nc2c(Br)cccc2/C1=C1/Nc2ccccc2/C1=N\O	4.8 µM	
O=C1Nc2ccc(Br)cc2/C1=C1/Nc2ccccc2/C1=N\OCC1CO1 (stereo unspecified)	0.62 µM	Retention_time (HepG2 [10]): 5.9 min; Drug metabolism [13]: 4 nmol; Activity (Homo sapiens [14]): inactive; Drug metabolism [15]: <= 4 nmol; viability at 1 µM (HepG2 [3]): 10%; Km at 5 min (epoxide hydrolase): 3.34 µM; viability at 3 µM (HepG2 [4]): 30%; remaining at 5 min [16]: 88%; viability at 3 µM (HepG2 [6]): 4.8%; Drug recovery [17]: Tde; Drug metabolism [18]: Tde; Drug metabolism [19]: Metabolite_Detected; inhibition (Homo sapiens [20]): Tde; viability at 1 µM (HepG2 [7]): 39%; remaining at 0 min [21]: 95%; Drug recovery [22]: 80%; Activity [23]: Active; Drug metabolism [24]: Metabolite_Detected
O=C1Nc2c(Br)cccc2/C1=C1/Nc2ccccc2/C1=N\OCC1CO1 (stereo unspecified)	37 µM	Activity (HepG2 [25]): inactive
O=C1Nc2c(Br)cccc2/C1=C1/Nc2ccc(Br)cc2/C1=N\O	4.9 µM	
O=C1Nc2ccccc2/C1=C1/Nc2ccccc2/C1=N\OCCCC1CO1 (stereo unspecified)	16 µM	
O=C1Nc2ccccc2/C1=C1/Nc2ccc(Br)cc2C1=O	> 100 µM	
O=C1Nc2cc(Br)ccc2/C1=C1/Nc2ccccc2C1=O	> 100 µM	
O=C1Nc2ccc(Br)cc2/C1=C1/Nc2cc(Br)ccc2/C1=N\O	> 100 µM	
O=C1Nc2c(Br)cccc2/C1=C1/Nc2ccc(Br)cc2/C1=N\OCC1CO1 (stereo unspecified)	10 µM	Activity (HepG2 [25]): inactive
O=C1Nc2ccc(Br)cc2/C1=C1/Nc2ccc(Br)cc2/C1=N\OCC1CO1 (stereo unspecified)	2.5 µM	
O=C1Nc2ccc(Cl)cc2/C1=C1/Nc2ccccc2C1=O	> 100 µM	
O=C1Nc2ccccc2/C1=C1/Nc2cc(Br)ccc2/C1=N\OCC1CO1 (stereo unspecified)	4.5 µM	
COc1ccc2c(c1)/C(=C1/Nc3ccccc3/C1=N\O)C(=O)N2	6.2 µM	
O=C1Nc2c(Br)cc(Br)cc2/C1=C1/Nc2ccccc2/C1=N\OCC1CO1 (stereo unspecified)	8.8 µM	Activity (HepG2 [25]): inactive
O=C1Nc2c(Br)cccc2/C1=C1/Nc2ccccc2C1=O	> 100 µM	

SMILES	IC50 (HepG2 [1])	other results
COc1cccc2c1NC(=O)/C2=C1\Nc2ccccc2\C1=N/OCC1CO1 (stereo unspecified)	10 µM	
O=C1Nc2ccc(I)cc2/C1=C1/Nc2ccccc2/C1=N\O	57 µM	
O=C1Nc2c(Br)cccc2/C1=C1/Nc2cc(Br)ccc2/C1=N\OCC1CO1 (stereo unspecified)	> 100 µM	
O=C1Nc2ccc(F)cc2/C1=C1/Nc2ccccc2/C1=N\OCC1CO1 (stereo unspecified)	1.7 µM	
O=C1Nc2cc(Br)c(Br)cc2/C1=C1/Nc2ccccc2/C1=N\O	4.4 µM	
O=C1Nc2cc(Br)ccc2/C1=C1/Nc2ccc(Br)cc2/C1=N\O	3.7 µM	
O=C1Nc2c(Br)cc(Br)cc2/C1=C1/Nc2ccccc2/C1=N\O	6.6 µM	
O=C1Nc2ccccc2/C1=C1/Nc2cc(Br)ccc2/C1=N\O	14 µM	
COc1ccc2c(c1)/C(=C1/Nc3ccccc3C1=O)C(=O)N2	> 100 µM	
O=C1Nc2cc(Br)c(Br)cc2/C1=C1/Nc2ccccc2C1=O	> 100 µM	
O=C1Nc2cc(Br)c(Br)cc2/C1=C1/Nc2ccccc2/C1=N\OCC1CO1 (stereo unspecified)	1.9 µM	viability at 1 µM (HepG2 [3]): 96%; viability at 3 µM (HepG2 [4]): 48%; viability at 3 µM (HepG2 [6]): 6.5%; viability at 1 µM (HepG2 [7]): 78%
O=C1Nc2c(Br)cccc2/C1=C1/Nc2ccc(Br)cc2C1=O	> 100 µM	
O=C1Nc2ccccc2/C1=C1/Nc2cc(Br)ccc2C1=O	> 100 µM	
O=C1Nc2cc(Br)ccc2/C1=C1/Nc2ccc(Br)cc2C1=O	> 100 µM	
O=C1Nc2ccc(Br)cc2/C1=C1/Nc2cc(Br)ccc2C1=O	> 100 µM	
O=C1Nc2cc(Br)ccc2/C1=C1/Nc2ccccc2/C1=N\OCC1CO1 (stereo unspecified)	> 100 µM	
COc1ccc2c(c1)NC(=O)/C2=C1\Nc2ccccc2C1=O	> 100 µM	
O=C1Nc2ccccc2/C1=C1/Nc2ccccc2C1=O [INDIRUBIN]	> 100 µM	
O=C1Nc2ccccc2/C1=C1/Nc2ccc(Br)cc2/C1=N\O	11 µM	
O=C1Nc2ccccc2/C1=C1/Nc2ccc(Br)cc2/C1=N\OCC1CO1 (stereo unspecified)	3.3 µM	
